Test results taken from US11679124B2, “Composition for use in the treatment of conditions caused by calcium deficiency” (Epicyt Pharma AB, priority 2018, dated 2023).

Legend:
Assay type in all cases: cell-based, human
[1] = system: Caco-2 cells; assay: Ca2+ transport across Caco-2 monolayer without calcium gradient; settings: 10 nM 1.25(OH)2-vitamin D3, last 48 hours; no Ca2+ gradient, 1.8 mM on each side
Protocol: The Caco-2 cells were cultivated in on permeable support for 11-14 days, slightly modified according to Giuliano A. R., & Wood R. J. On the day of the experiments the trans-epithelial electrical resistance was measured and only preparations with values between 400 and 900 Ohms×cm^2 were counted. Tested substances were given in the top compartment and effect as read after 24 to 48 h. Ca^2+ flux was measured using liquid scintillation comparing the lower compartment with the upper.
In the present experiment the Caco-2 cells were cultured and grown to epithelium-shaped confluence over 14 days. The following experiments were performed according to Giuliano A. R., & Wood R. J. The effect of 10 nM 1.25(OH)2-vitamin D3 on the calcium transport was tested during the last 48 hours. Flux was tested without calcium (Ca^2+) gradient, concentration of calcium was 1.8 mM on each side of the layer of cells.
In the present experiment the Caco-2 cells were cultured and grown to epithelium-shaped confluence over 12 days. The cells were then grown in another 4 days in presence of 0.1 mM GCA, or in presence with 0.5 mM butyrate, or in presence of the GCA and butyrate in combination.
The effect of 10 nM 1.25(OH)2-vitamin D3 on the calcium transport was tested during the last 48 hours. […]

[2] = system: Hsp 90β; assay: Hsp 90β expression in Caco-2 cells, western blot; settings: 48 h, GCA 1×10^−4 M, butyrate 5×10^−4 M, vs. vehicle control
Protocol: Caco-2 cells with a passage or about 45 (number of time they have been divided) (Sigma-Aldrich Stockholm Sweden) were cultured in Dulbecco's Modified Eagle's Medium (Life Technologies Invitrogen AB, Lidingo, Sweden), with 10% Foetal Bovine Serum (FBS) (Life Technologies), 1% Non Essential Amino Acid (NEAA) (Life Technologies), 100 IU/mL Penicillin Streptomycin (Pen-Strep) (Life Technologies). The cells were incubated in 37° C. with 5% CO2 and cultured in a cell culture flask (BD Falcon®, VWR Internationals, Stockholm, Sweden) and the medium was changed at Monday, Wednesday and Friday every week. […]
For the protein harvesting, the cells was scraped into lysis buffer in protein kinase blocking solution (1% Triton x-100, EDTA; ethylenediaminetetraacetic acid) containing protein kinase inhibitor buffer (10 mM potassium phosphate buffer pH 6.8, 10 mM 3-[(3-cholamidopropyl) dimethylammonio]-1-propane sulphonate (CHAPS: Boehringer Mannheim, Mannheim, Germany) and protease inhibitor cocktail tablet Complete (Roche Diagnostics AB, Stockholm, Sweden). After shaking several times on ice, the cell debris was removed by centrifugation (10000×g for 10 min at 4° C.) and the supernatant's protein content was analysed using the Bradford method. […]

[3] = system: claudin-2; assay: Claudin-2 protein expression in Caco-2 cells, western blot; settings: vitamin D 10 μM or 100 μM, geldanamycin 0.5 μM
Protocol: Caco-2 cells with a passage or about 45 (number of time they have been divided) (Sigma-Aldrich Stockholm Sweden) were cultured in Dulbecco's Modified Eagle's Medium (Life Technologies Invitrogen AB, Lidingo, Sweden), with 10% Foetal Bovine Serum (FBS) (Life Technologies), 1% Non Essential Amino Acid (NEAA) (Life Technologies), 100 IU/mL Penicillin Streptomycin (Pen-Strep) (Life Technologies). The cells were incubated in 37° C. with 5% CO2 and cultured in a cell culture flask (BD Falcon®, VWR Internationals, Stockholm, Sweden) and the medium was changed at Monday, Wednesday and Friday every week.
The cells were cultured for approximately 1 week before they were detached (0.25% trypsin-EDTA, Life Technologies) and seeded in 6 well plates with semipermeable filter inserts (3 μm pore size, BD Biosciences, Le Pont de Claix, France), 200 000 cells/well. At confluence the culture medium was changed to FBS-free in both the upper and lower well compartment and to the lower compartment also a mixture of […] insulin, 0.55 μg/mL transferring and 6.7 ng/mL selenium (ITS, Life Technologies) was added to establish cell polarity and structural differentiation (6-7). The cell monolayers were let to cultivate for 14 days before experiments. […]

C=C1/C(=C\C=C2/CCC[C@]3(C)[C@@H]([C@H](C)CCCC(C)(C)O)CC[C@@H]23)C[C@@H](O)C[C@@H]1O [1.25(OH)2-vitamin D3]
calcium transport (Experiment 3) [1]: active transport of vitamin D was confirmed

C[C@H](CCC(=O)NCC(=O)O)[C@H]1CC[C@H]2[C@@H]3[C@H](O)C[C@@H]4C[C@H](O)CC[C@]4(C)[C@H]3C[C@H](O)[C@]12C [GCA, glycocholic acid]
Hsp 90β protein expression normalized to GAPDH [2]: no effect by itself

vitamin-D
claudin-2 protein expression [3]: increase claudin-2 protein expression
